The values below come from patent publication US11512073B2, “Benzimidazole derivatives, pharmaceutical composition comprising the same, and use thereof” (Chongqing University of Arts and Sciences, priority 2020, dated 2022).

Structures are written as SMILES.

For assay [1], the system named is MDA-MB-231 and MDA-MB-468 cells. The assay is described as follows: Cell cycle analysis by flow cytometry. The assay is classed as cell-based, Human. The following applies: 48 h. On the procedure:
(§1) Cells in a logarithmic growth phase were harvested and seeded into six-well plates with 30% cell density and cultured overnight in an incubator. Once adhered to the bottom of the plate, cells were treated with different doses of compound 7a for 48 h, and then employed in flow cytometry analysis. For cell cycle assay, the collected cells were washed with phosphate-buffered saline (PBS) and fixed with 70% cold ethanol in 4° C. for 24 h. After washing three times of PBS, the fixed cells were incubated in 200 μL PBS solution containing 1 μL propidium iodide (BD, CA, USA) and 1 μL RNase (Sigma Aldrich, USA) at 37° C. for 0.5 h. Finally, cells were analyzed using BD Accuri™ C6 flow cytometry (BD Biosciences, USA). For the cell apoptosis assay, after the cells were harvested and washed twice with PBS, the percentage of apoptotic cells were measured using an Annexin V-FITC/PI Apoptosis Assay Kit (BD Biosciences, USA). The BD Accuri™ C6 flow cytometry was used to analyze the apoptosis process. The FlowJo software was used to analyze the cell cycle arrest and apoptotic rate.
Background: In flow cytometry, cells or beads pass a laser one at a time.

Assay [2] has the same test system. The assay is described as follows: Colony forming assay. The assay is classed as cell-based, Human. The settings on record: 0, 5, 10, 20 μmol/L. On the procedure: MAD-MB-231 and MDA-MB-468 cells were seeded in a six-well plate at 1000 cells/well and treated with various concentrations of compound 7a (0, 5, 10, 20 μmol/L) for 48 h. After discarding the supernatant, the cells were cultured with fresh medium for 15 days until formed the visible colonies. Finally, colonies were fixed with 4% paraformaldehyde (PFA) and stained with crystal violet for 30 min to enable enumeration of colonies.

For assay [3], the system named is TNBC cells. The assay is described as follows: Cell counting assay with microscope. The following applies: 48 h. The assay is classed as cell-based, Human. On the procedure:
FIG. 2A: cell viability was measured with the MTT assay. MDA-MB-231 and MDA-MB-468 cells were exposed to the indicated concentrations of compound 7a for 24, 48 and 72 h. FIGS. 2B and 2C: cell morphology and cell count of MDA-MB-231 and MDA-MB-468 cells were captured with microscope after treating with the indicated concentrations of compound 7a for 48 h. These cells were visualized with the images and quantitated by histogram, Scale bar, 100 μm. FIGS. 2D and 2E: colony formation assay was performed to evaluate TNBC growth in vitro after treatment with the indicated concentrations of compound 7a for 14 days. The colonies were visualized with the images and quantitated by histogram.

In assay [4] the test system is MDA-MB-468 cells. The experiment in a line: Annexin V-FITC/PI apoptosis assay by flow cytometry. The format is cell-based, Human. The settings on record: 48 h, dose-dependent; from 5.02% in control; p<0.01. On the procedure: as §1
The test system of assay [5] is MDA-MB-231 cells. Described as above. The format is cell-based, Human. The following applies: 48 h, dose-dependent; from 3.64% in control; p<0.01. On the procedure:
as §1

The test system of assay [6] is HCT116 cells. The experiment in a line: mCherry-GFP-LC3B reporter autophagic flux assay. The assay is classed as cell-based. The settings on record: 12 h treatment, versus control. On the procedure:
Mcherry-EGFP-LC3B overexpression system was co-transfected with lenviral packaging vectors pSPAX2 and pMD2G into HEK293FT cells using Fugene Transfection Reagent (Promega, MW, USA). Virus particles were collected after 48 h infection, filtered through a 0.22 μm membrane, added into colorectal cancer cell HCT116, and then incubated for 12 h at 37° C. The medium was replaced and HCT116 cells were selected for puromycin tolerance (10 μg/mL) to obtain the stable cells expressing mcherry-EGFP-LC3B.

The subject of assay [7] is MDA-MB-231 xenograft. The experiment in a line: Animal xenograft model. The format is in vivo, NOD/SCID mice. On the procedure: For the in vivo assay, six-week-old female NOD/SCID mice weighing 16-20 g were used, which were maintained in the SPF (Specific Pathogen Free) laboratory animal environment and under a normal daily light/dark cycle. During the experiment, 1×10^7 MDA-MB-231 cells were suspended in 100 μL serum-free DMEM and injected subcutaneously into the left groin region of the mice. Tumor volume was measured regularly. On day 22 post-tumor implanted, the NOD/SCID mice were randomly divided into three groups (n=6) on the basis of their tumor volume to insure a similar starting tumor volume of all the groups. The appropriate dose of compound 7a (5 mg/kg, 15 mg/kg) dissolved in 100 μL solvent (10% ethanol, 40% PEG400 and 50% corn oil) was administered every 3 days by intraperitoneal injection when the xenograft tumor volume attained around 100 mm^3, while the control group received equal volume solvent every 3 days in a similar method. The tumor size was measured once every 3 days with a caliper, and tumor size was calculated using the standard formula (L×W^2)/2, where L and W represents the length and width, respectively. The mice were sacrificed on Day 46 (Day 25 after treatment), and the xenograft tumors were obtained and weighed. Then the tumor tissues were collected and divided into two portions, one was fixed in 4% PFA and embedded by paraffin for Hematoxylin & eosin (HE) and immunohistochemical staining, anther was performed immunoblotting.
For immunohistochemistry, the embedded samples were sectioned and incubated with anti-Ki-67 overnight at 4° C. Then, the sections were incubated with HRP labeled secondary antibody and were observed under the Olympus BX73 microscope. Five fields were randomly selected to evaluate the positivity.

The subject of assay [8] is TNBC cells. The assay is described as follows: MTT cell viability assay, statements for both TNBC lines. The assay is classed as cell-based, Human. The following applies: MDA-MB-231 and MDA-MB-468; 24, 48 and 72 h. On the procedure:
Compounds were dissolved in a hydrous dimethylsulfoxide (DMSO, Life technologies) to obtain a 50 mM stock solution, which was then added to the culture medium at a concentration range of 6.25-100 μM. […] Z-VAD-FMK was purchased from Selleckchem (Houston, Tex.); The reagents including 3-(4,5-dimethylthiazol-2-yl)-2,5-diphenyltetrazolium bromide (MTT), dimethyl sulfoxide (DMSO), penicillin, streptomycin, propidium iodide (PI) were purchased from Sigma-Aldrich (MO, USA); All the primary antibodies used in this study were from Cell Signaling Technology (MA, USA) and the secondary antibodies were from LI-COR Biosciences (NE, USA).
Human triple negative breast cancer cell lines MDA-MB-231 and MDA-MB-468 were purchased from the American Type Culture Collection (ATCC, VA, USA). These cells were cultured in high-glucose DMEM (Gibco, USA) supplemented with 10% fetal bovine serum (FBS, Gibco) and 1% penicillin/streptomycin (Gibco) at 37° C. in a humidified incubator containing 5% CO2.
The antiproliferative activity of compounds was measured with the MTT assay. […] The absorbance value was determined at 570 nm using a microplate reader (Bio-Tek, VT, USA). Data were analyzed by GraphPad Prism 6. […]
(In general: Tetrazolium assays rely on reduction of a dye to a coloured formazan, in cell work by metabolically active cells.)

Take `O=C(NC1CCCCC1)c1[nH]cnc1-c1nc2ccccc2[nH]1` [Compound 7a]: the cell cycle distribution result in assay [1] is listed as “induced cell cycle arrest at S-phase”. Also, the colony formation result in assay [2] was “smaller and decreased colony numbers”. Moreover, the “proliferation by cell count” value in assay [3] is listed as “significantly inhibited proliferation of TNBC cells”. Besides, the “proportion of late-phase apoptosis” value is given as 36.4% in assay [4] and 34.2% in assay [5]. The “number of yellow fluorescent vesicles (autophagosomes)” value in assay [6] is given as “significant increase in the number of yellow fluorescent vesicles”. For the same compound, the “tumor growth (tumor volume and weight)” value in assay [7] (5 and 15 mg/Kg, intraperitoneal, after 24 days, dose dependent) is on record as “considerably suppressed human TNBC tumor growth”. The “size of harvested tumors” value in assay [7] (5 and 15 mg/kg, intraperitoneal, every 3 days) is “dramatically smaller than tumors from vehicle-treated control mice”. The “LC3B-II, p62, γH2AX and PARP in tumor tissue” value in assay [7] (immunoblotting of tumors, 5 and 15 mg/kg) was “concentration-dependent upregulation of LC3B-II, p62, γH2AX and PARP”. Moreover, in assay [7] (immunohistochemistry of tumors), the “cell count (H&E) and Ki67 in tumor tissue” value is “significant decrease in cell count and Ki67”. The TNBC cell viability result in assay [8] was “efficiently inhibited TNBC cell viability in a time- and dose-dependent manner”.
